Test results: ChEMBL document CHEMBL1201862, “PubChem BioAssay data set” (2004)
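Results reflect a 48-hour exposure of cells in 96-well plates to compound at five concentrations. At the GI50, growth is halved.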 Calls of active or inactive are those of the source. Rule as the data show it: active = GI50 up to about 1.1 µM and inactive = higher.

What was measured:
Test in all cases: inhibition of tumour cell growth, NCI panel, 48 h
A549 = tested on: A549
HL-60 = tested on: HL-60
NCI-H23 = tested on: NCI-H23
786-0 = tested on: 786-0
UACC-257 = tested on: UACC-257
KM12 = tested on: KM12
UACC-62 = tested on: UACC-62
SNB-78 = tested on: SNB-78
HCC 2998 = tested on: HCC 2998
SF-295 = tested on: SF-295
NCI-H226 = tested on: NCI-H226
COLO 205 = tested on: COLO 205
SNB-75 = tested on: SNB-75
TK-10 = tested on: TK-10
LOX IMVI = tested on: LOX IMVI
DU-145 = tested on: DU-145
BT-549 = tested on: BT-549
NCI/ADR-RES = tested on: NCI/ADR-RES
T47D = tested on: T47D
MCF7 = tested on: MCF7

Measured: GI50

CCOC(=O)C1=C(Nc2ccc(Br)cc2)OCC1=O
inactive: A549 > 100 µM | HL-60 17.9 µM | NCI-H23 > 100 µM | 786-0 > 100 µM | UACC-257 > 100 µM | KM12 > 100 µM | UACC-62 > 100 µM | SNB-78 > 100 µM | HCC 2998 > 100 µM | SF-295 > 100 µM | NCI-H226 > 100 µM | COLO 205 > 100 µM | SNB-75 > 100 µM | TK-10 > 100 µM

Oc1ccc2c3c1OC1C(=NN=C4CCC5(O)C6Cc7ccc(O)c8c7C5(CCN6CC5CC5)C4O8)CCC4(O)C(C2)N(CC2CC2)CCC314 (stereo not given)
inactive: A549 20.5 µM | HL-60 16.4 µM | NCI-H23 > 57.5 µM | LOX IMVI 20 µM | 786-0 24.9 µM | UACC-257 20.4 µM | KM12 19.8 µM | UACC-62 20.5 µM | SNB-78 62.5 µM | HCC 2998 21.5 µM | SF-295 17 µM | NCI-H226 > 100 µM | COLO 205 19.4 µM | SNB-75 41.6 µM | TK-10 > 46.2 µM

COc1ccc(OC)c(NC(=O)CCC/C(CC(=O)c2ccc(O)c(OC)c2)=N\Nc2ccc([N+](=O)[O-])cc2)c1
inactive: A549 > 100 µM | HL-60 > 100 µM | NCI-H23 48.1 µM | LOX IMVI 40.8 µM | 786-0 27.6 µM | UACC-257 > 100 µM | KM12 94.6 µM | UACC-62 48.8 µM | SNB-78 43.6 µM | HCC 2998 > 100 µM | SF-295 52.8 µM | NCI-H226 > 100 µM | COLO 205 > 100 µM | SNB-75 22.5 µM | TK-10 50.2 µM

NC1=NN(c2ccccc2)C(=O)C1C(=O)C(=O)Nc1nccs1 (stereo not given)
inactive: A549 > 100 µM | HL-60 > 100 µM | NCI-H23 > 100 µM | LOX IMVI > 100 µM | 786-0 > 100 µM | UACC-257 > 100 µM | KM12 > 100 µM | UACC-62 > 100 µM | SNB-78 > 100 µM | HCC 2998 > 100 µM | SF-295 > 100 µM | NCI-H226 > 100 µM | COLO 205 > 100 µM | SNB-75 62.1 µM | TK-10 > 100 µM

O=C1O/C(=C(\Br)c2cccc3ccccc23)c2ccccc21
inactive: A549 20 µM | HL-60 19.5 µM | NCI-H23 > 40 µM | LOX IMVI 73.6 µM | 786-0 17.4 µM | UACC-257 > 40.9 µM | KM12 29.7 µM | UACC-62 35.2 µM | SNB-78 30.8 µM | HCC 2998 > 65.3 µM | SF-295 > 38.1 µM | NCI-H226 > 41.3 µM | COLO 205 28.3 µM | SNB-75 > 50.4 µM | TK-10 30.4 µM

Cc1ccc2nc(NC(=O)C(=O)C(C(=O)c3ccc4ccccc4c3)C3OC(=O)c4ccccc43)sc2c1 (stereo not given)
inactive: A549 11.5 µM | NCI-H23 4.99 µM | LOX IMVI 10.2 µM | 786-0 6.15 µM | UACC-257 13.1 µM | KM12 16.8 µM | UACC-62 6.98 µM | SNB-78 4.36 µM | HCC 2998 11.3 µM | SF-295 4.61 µM | NCI-H226 2.1 µM | COLO 205 15.1 µM

COc1ccc(-c2cc(=O)c3ccccc3[nH]2)c(OC)c1
inactive: A549 > 100 µM | HL-60 73.6 µM | NCI-H23 > 100 µM | LOX IMVI > 100 µM | 786-0 > 100 µM | UACC-257 > 100 µM | KM12 > 100 µM | UACC-62 > 100 µM | SNB-78 > 100 µM | HCC 2998 > 10 µM | SF-295 > 100 µM | COLO 205 > 100 µM | SNB-75 > 100 µM | TK-10 > 100 µM

O=Cc1ccc2c(c1)CC1(C2)Cc2ccc3c(c2C1)CCC3 (stereo not given)
inactive: A549 37.8 µM | HL-60 3.75 µM | NCI-H23 14.6 µM | LOX IMVI 4.73 µM | 786-0 14.4 µM | UACC-257 16 µM | KM12 11.4 µM | UACC-62 6.56 µM | DU-145 22.1 µM | HCC 2998 24.3 µM | SF-295 5.85 µM | NCI-H226 16.3 µM | COLO 205 20.8 µM | BT-549 5.05 µM | NCI/ADR-RES 7.19 µM | T47D 18.2 µM | SNB-75 7.24 µM | TK-10 16.6 µM | MCF7 4.43 µM

CC(=O)O[C@H]1CC[C@@]2(C)C(=CC[C@@H]3C2CC[C@]2(C)Nc4[nH]ncc4CC32)C1 (stereo not given in full)
inactive: A549 32.2 µM | HL-60 20.5 µM | NCI-H23 27.5 µM | 786-0 > 100 µM | UACC-257 16.6 µM | KM12 16.6 µM | UACC-62 26.1 µM | SNB-78 42.7 µM | HCC 2998 > 100 µM | SF-295 42.2 µM | NCI-H226 > 100 µM | SNB-75 85.9 µM | TK-10 > 100 µM

CC(C)(C)C1CC[C@H]2c3c([nH]c4ccc(Br)cc34)[C@H]3C(=O)N(c4ccccc4)C(=O)[C@H]3[C@H]2C1 (stereo not given in full)
inactive: A549 27.4 µM | HL-60 7.71 µM | NCI-H23 27.9 µM | LOX IMVI 19.1 µM | 786-0 6.67 µM | UACC-257 > 100 µM | KM12 17.6 µM | UACC-62 23.3 µM | SNB-78 10 µM | HCC 2998 > 100 µM | SF-295 14 µM | NCI-H226 35.2 µM | COLO 205 7.74 µM | SNB-75 18.5 µM | TK-10 48.9 µM

N#CCC(=O)N/N=C1/C(=O)NC(=O)C(=O)C1c1nc2ccccc2s1 (stereo not given)
inactive: A549 > 100 µM | NCI-H23 > 100 µM | LOX IMVI > 100 µM | 786-0 > 100 µM | UACC-257 > 100 µM | UACC-62 > 100 µM | SNB-78 > 100 µM | HCC 2998 > 100 µM | SF-295 > 100 µM | NCI-H226 50.1 µM | COLO 205 > 100 µM | SNB-75 > 100 µM | TK-10 > 100 µM

CC(=O)C1=C(C)N2C(=NC3=C(CCc4ccccc43)C2c2ccc(Cl)cc2)S1 (stereo not given)
inactive: A549 53.8 µM | HL-60 4.42 µM | NCI-H23 71.1 µM | LOX IMVI > 81.1 µM | 786-0 > 52.4 µM | UACC-257 > 78.5 µM | KM12 33.3 µM | UACC-62 58.7 µM | DU-145 > 100 µM | HCC 2998 5.69 µM | SF-295 > 100 µM | NCI-H226 > 100 µM | COLO 205 21.4 µM | BT-549 > 100 µM | NCI/ADR-RES > 73.8 µM | T47D 5.53 µM | SNB-75 > 32.5 µM | TK-10 > 100 µM | MCF7 20.5 µM

Nc1ncnc2c1sc(=S)n2-c1ccccc1
inactive: A549 > 100 µM | HL-60 > 100 µM | NCI-H23 > 100 µM | LOX IMVI > 100 µM | 786-0 > 100 µM | UACC-257 > 100 µM | KM12 > 100 µM | UACC-62 > 100 µM | SNB-78 > 100 µM | HCC 2998 > 100 µM | SF-295 > 100 µM | NCI-H226 > 100 µM | COLO 205 > 100 µM | SNB-75 > 100 µM | TK-10 > 100 µM

CCCCCCCCCCCCOP(N)(=O)OCCCCCCCCCCCC
inactive: A549 > 100 µM | HL-60 > 100 µM | NCI-H23 > 100 µM | LOX IMVI > 100 µM | 786-0 > 100 µM | UACC-257 > 100 µM | UACC-62 > 100 µM | SNB-78 > 100 µM | HCC 2998 > 100 µM | SF-295 > 100 µM | COLO 205 > 100 µM | SNB-75 > 100 µM | TK-10 > 100 µM

COC(C)(C)[C@H](O)C(O)CC(C)[C@@H]1CCC23CC12CCC1[C@@]2(C)CCC(OC(C)=O)C(C)(C)C2CC(OC2OC(COC(C)=O)C(O)C(O)C2O)[C@]13C (stereo not given in full)
inactive: A549 2.94 µM | HL-60 1.35 µM | NCI-H23 7.18 µM | LOX IMVI 2.79 µM | 786-0 6.58 µM | UACC-257 3.76 µM | KM12 2.16 µM | UACC-62 2.77 µM | SNB-78 8.07 µM | HCC 2998 1.57 µM | SF-295 3.21 µM | NCI-H226 8.32 µM | COLO 205 3.48 µM | SNB-75 3.8 µM | TK-10 7.23 µM

COc1cccc2c1cc([N+](=O)[O-])c1c(C(=O)O)cc3c(c12)OCO3 [ARISTOLOCHIC ACID]
inactive: A549 45.9 µM | HL-60 23.1 µM | NCI-H23 39.4 µM | LOX IMVI 35.5 µM | 786-0 37.2 µM | UACC-257 97.7 µM | KM12 27.3 µM | UACC-62 31.4 µM | DU-145 30.1 µM | HCC 2998 2.8 µM | SF-295 32.4 µM | NCI-H226 33.7 µM | COLO 205 1.31 µM | BT-549 39.4 µM | NCI/ADR-RES 38.1 µM | T47D 50.1 µM | SNB-75 30.9 µM | TK-10 46.9 µM | MCF7 49.4 µM

O=c1ccc2ccc(O)cc2o1 [UMBELLIFERONE]
inactive: A549 > 100 µM | HL-60 > 100 µM | NCI-H23 > 100 µM | LOX IMVI > 100 µM | 786-0 > 100 µM | UACC-257 > 100 µM | KM12 > 100 µM | UACC-62 > 100 µM | DU-145 > 100 µM | HCC 2998 88.7 µM | SF-295 > 100 µM | NCI-H226 > 100 µM | COLO 205 > 100 µM | BT-549 > 100 µM | NCI/ADR-RES > 100 µM | T47D > 100 µM | SNB-75 > 100 µM | TK-10 > 100 µM | MCF7 > 100 µM
